Columns and labels:
[1] = Partition coefficient of fluorous tin hydrides, FC-72/CH3CN (GC); assay type: physicochemical; conditions: FC-72 (1 mL) / acetonitrile (1 mL), stirred 10 min, GC relative peak area, n-octadecane internal standard
Method: (§1) Measurement of the Partition Coefficient of Fluorous Tin hyrides 4a-c. Fluorous tin hydrides (2-12 mg) were stirred with FC-72 (1 mL) and benzene (1 mL) or acetonitrile (1 mL) for 10 min. After separation, n-octadecane was added to both phases as an internal standard (for FC-72 phase, the solvent was evaporated and ethyl acetate (1 mL) was added to dissolve both the tin hydride and n-ocadecane). An aliquot (10 uL) of each phase was injected to GC for three times and the relative peak area was used to calculate the following partition coefficients of tin hydrides: FC-72/CH3CN, 4a, 2.4; 4b, 14; 4c, 48; FC-72/benzene, 4a, 0.7; 4b, 2.5; 4c, 4.7.

[2] = Partition coefficient of fluorous tin hydrides, FC-72/benzene (GC); assay type: physicochemical; conditions: FC-72 (1 mL) / benzene (1 mL), stirred 10 min, GC relative peak area, n-octadecane internal standard
Method: as §1

[3] = conditions of the reduction of FIG. 4

SMILES	partition coefficient FC-72/CH3CN [1]	partition coefficient FC-72/benzene [2]	solubility in t-butanol [3]
[CH3][SnH]([CH3])[CH2]CC(F)(F)C(F)(F)C(F)(F)C(F)(F)C(F)(F)C(F)(F)C(F)(F)C(F)(F)F [4b, Dimethyl-(3,3,4,4,5,5,6,6,7,7,8,8,9,9,10,10,10-heptadecafluorodecyl)stannane]	14	2.5	–
FC(F)(F)C(F)(F)C(F)(F)C(F)(F)C(F)(F)C(F)(F)C[CH2][SnH]([CH2]CC(F)(F)C(F)(F)C(F)(F)C(F)(F)C(F)(F)C(F)(F)F)[CH2]CC(F)(F)C(F)(F)C(F)(F)C(F)(F)C(F)(F)C(F)(F)F [(C6F13CH2CH2)3SnH]	–	–	insoluble or nearly insoluble
[CH3][SnH]([CH3])[CH2]CC(F)(F)C(F)(F)C(F)(F)C(F)(F)C(F)(F)C(F)(F)F [4a, Dimethyl-(3,3,4,4,5,5,6,6,7,7,8,8,8-tridecafluorooctyl)stannane]	2.4	0.7	–
[CH3][SnH]([CH3])[CH2]CC(F)(F)C(F)(F)C(F)(F)C(F)(F)C(F)(F)C(F)(F)C(F)(F)C(F)(F)C(F)(F)C(F)(F)F [4c, Dimethyl-(3,3,4,4,5,5,6,6,7,7,8,8,9,9,10,10,11,11,12,12,12-heneicosafluorododecyl)stannane]	48	4.7	–
